Several values for one entry are separate records, joined by “and”; a condition that tells them apart may be missing. Equal entries are not always repeated.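 A five-concentration, 48-hour dose response in 96-well plates underlies each endpoint, interpolated linearly between surrounding concentrations. GI50 marks 50% less growth. TGI marks complete inhibition of growth.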
How the values were obtained:
Assay in all cases: inhibition of tumour cell growth, NCI panel, 48 h
[1] = tested on: OVCAR-3 ovarian
[2] = tested on: OVCAR-5 ovarian
[3] = tested on: SK-OV-3 ovarian
[4] = tested on: BT-549 breast
[5] = tested on: HOP-92 NSCLC
[6] = tested on: IGROV1 ovarian
[7] = tested on: NCI-H23 lung
[8] = tested on: HCC-2998 colon
[9] = tested on: TK-10 renal
[10] = tested on: M14 melanoma

Row | Structure (SMILES) | GI50 [1] | TGI [1] [µM] | GI50 [2] | TGI [2] [µM] | GI50 [3] [µM] | TGI [3] [µM] | GI50 [4] | TGI [4] [µM] | GI50 [5] [µM] | TGI [5] [µM] | GI50 [6] [µM] | TGI [6] [µM] | GI50 [7] | TGI [7] [µM] | GI50 [8] [µM] | TGI [8] [µM] | GI50 [9] [µM] | TGI [9] [µM] | GI50 [10] [µM] | TGI [10] [µM]
1 | COc1cc(/C=C/C(=O)c2c(C)nc3ccccc3c2/C=C/c2ccc(C)cc2)cc(OC)c1OC | 1.76 µM | 3.23 | 2.18 µM | 5.38 | 11 | > 100 | 2.06 µM | 4.57 | 1.61 | 3.9 | 1.72 | 3.72 | 1.72 µM | 3.8 | 1.73 | 3.26 | 5.37 | 67 | 2.18 | 5.03
2 | C=C1C(=O)O[C@H]2[C@H]1CCC(/C=N/c1ncc(Br)cc1N)=C\CC[C@@]1(C)O[C@@H]21 | 1.05 µM | 2.29 | 3.2 µM | 11.5 | 16.3 | 95.2 | 1.82 µM | 6.49 | 1.31 | 3.74 | 2.11 | 7.44 | 3.18 µM | 17.2 | 3.56 | 12.9 | 1.6 | 3.19 | 1.89 | 5.36
3 | CCN1Cc2c(ccc(F)c2C#N)O[C@@H](C)CNC(=O)c2c(N)nn3ccc1nc23 | 3.37 µM | 18.1 | 2.87 µM | 19.8 | 1.66 | 15.3 | 5.98 µM | 18.5 | 0.479 | 3.65 | 0.682 | 13 | 2.3 µM | 29.4 | 5.57 | 20.7 | 1.29 | 11.7 | 0.678 | 11.1
4 | COc1cccc(OCCCN)c1-c1cc(Nc2cnc(C#N)cn2)n[nH]1 | 0.00761 µM and < 0.0155 µM | 11.4 | 0.0381 µM and 0.043 µM | 15.2 | 0.00474 | 7.02 | 0.0797 µM and 0.0856 µM | 8.2 | < 0.0166 | 8.76 |  | 15.6 | 0.00479 µM and < 0.0109 µM | 8.88 | 0.00484 | 11.2 | 0.0065 | 0.417 | 0.00276 | 0.0135
5 | COc1ccccc1N1CCN(CCc2c[nH]c3cc4c(cc23)OCO4)CC1 | 30.2 µM | > 100 | 15.5 µM | > 100 | 81.6 | > 100 | 23.3 µM | > 100 | 14.3 | > 100 | 40.2 | > 100 | 23.4 µM | > 100 | 16.5 | 32.6 | 27.1 | > 100 | 11.3 | 40.7
6 | Oc1ccccc1CNCC12CC3CC(CC(C3)C1)C2 | 57.5 µM | > 100 | 33 µM | > 100 | 35.8 | > 100 | 14 µM | 74.8 | 9.64 | 37.9 | 41.8 | > 100 | 32.4 µM | > 100 | 12.2 | 26.9 | 31.2 | > 100 | 15.7 | 38.3
7 | CCCCCCCCCCC(C(O)c1ccccc1)N1CCCCC1 (configuration not stated) | 1.11 µM | 2.57 | 2.47 µM | 6.85 | 2.59 | 7.82 | 4.57 µM | 16.5 | 1.82 | 3.83 | 1.5 | 3.15 | 2.27 µM | 5.97 | 1.61 | 3.07 | 2.16 | 4.83 | 1.87 | 3.47
8 | C=C1C(=O)O[C@H]2[C@H](OC(C)=O)[C@@H](C)CCC/C(C)=C/CC[C@@]3(C)O[C@@H]3C[C@@H]12 |  | 16.2 |  | 27.6 |  | 30.5 |  | 8.76 |  | 5.54 |  | 18.4 |  | 10.8 |  | 11.6 |  | 5 |  | > 40.4
9 | CCCCCCCCCCCCOC1C(C(COC2OC(C3COC(C)(C)O3)C3OC(C)(C)OC23)NC(=O)NS(=O)(=O)c2ccccc2)OC2OC(C)(C)OC21 (configuration not stated) | 2.78 µM | 8.39 | 4.34 µM | 13.8 | 13.8 | 28.1 | 3.61 µM | 13.1 | 2.39 | 8.52 | 2.53 | 11.2 | 4.34 µM | 19.3 | 3.24 | 12.8 | 5.96 | 19.6 | 5.23 | 18.9
10 | COc1ccc(/C=C(\C#N)n2nnc3ccccc32)cc1 | 0.046 µM |  | 0.463 µM |  | 0.64 | > 40.1 | 1.11 µM | 17.1 | 0.272 | 3.47 | 0.158 | 8.16 | 0.572 µM | 50.4 | 0.458 | 7.11 | 2.22 | 58.6 | 0.071 | 2.02
11 | CCC[CH2][Sn]([CH2]CCC)([CH2]CCC)[O]C(=O)c1ccc(Cl)cc1Cl | 0.13 µM | 0.259 | 0.135 µM | 0.315 | 0.142 | 0.279 | 0.119 µM | 0.251 | 0.102 | 0.301 | 0.15 | 0.308 | 0.13 µM | 0.296 | 0.168 | 0.31 | 0.132 | 0.267 | 0.147 | 0.29
12 | O=C(O)c1cc(-c2ccncc2)nc2ccccc12 |  | > 100 |  | > 100 |  | > 100 |  | > 100 |  | > 100 |  | > 100 |  | > 100 |  | > 100 |  | > 100 |  | > 100
13 | COc1ccc(C(=O)/C=C/c2ccc3c(c2)OCO3)c(OCc2ccccc2)c1 |  | > 100 |  | > 100 |  | > 100 |  | > 100 |  | > 100 |  | > 100 |  | > 100 |  | > 100 |  | > 100 |  | > 100
14 | COc1ccc(S(=O)(=O)Nc2cc(/C=C\c3cc(OC)c(OC)c(OC)c3)ccc2OC)cc1 | 0.053 µM | > 100 | 0.323 µM | > 100 | 0.0963 | 38.3 | 0.197 µM | > 100 | 0.0974 | 12 | 0.166 | > 100 | 0.48 µM | > 100 | 0.442 | > 100 | 0.0768 | 11.5 | 0.103 | > 100
15 | Nc1nc(N)c2c(n1)NC(c1ccc(F)cc1)C1CCc3ccccc3C1=N2 (configuration not stated) | 4.15 µM | 16.1 | 13.1 µM | 26.3 | 11.1 | 23.3 | 3.89 µM | 16.6 | 1.17 | 6.59 | 7.79 | 24.1 | 4.06 µM | 16.6 | 2.44 | 6.67 | 3.63 | 16.9 | 5.51 | 18.7
16 | O=C(c1ccccc1)C(Br)C(Br)c1cccc([N+](=O)[O-])c1 (configuration not stated) | 1.61 µM | 2.96 | 2.46 µM | 5.65 | 11 | 22.9 | 2 µM | 3.65 | 1.55 | 3.89 | 2.75 | 7.5 | 2.25 µM | 6.45 | 1.57 | 2.95 | 2.81 | 8.31 | 1.78 | 3.17
17 | Cc1cc(NCc2cc(Nc3ccnc4cc(Cl)ccc34)ccc2F)nc(N2CCN(C)CC2)n1 | 1.76 µM | 3.83 | 2.05 µM | 5.17 | 3.31 | 9.88 | 1.77 µM | 3.65 | 1.35 | 3.52 | 2.08 | 5.76 | 2.1 µM | 6.54 | 2.09 | 4.35 | 2.03 | 5.49 | 1.56 | 3.13
18 | C=C(C)[C@@H]1CC[C@]2(C)[C@H](CC=C3[C@@H]4[C@@H](C)[C@H](C)CC[C@]4(C(N)=O)CC[C@]32C)[C@@]1(C)CCC#N | 3.45 µM | 10.7 | 5.75 µM | > 100 | 7.31 | > 100 | 4.4 µM | 18 | 2.57 | 9.05 | 5.58 | > 100 | 5.72 µM | > 100 | 4.8 | 18.8 | 8.41 | 91.5 | 4.08 | 23.6

— PubChem BioAssay (NCI)
